The record followed here is patent US7160888B2, “[1,8]naphthyridin-2-ones and related compounds for the treatment of schizophrenia” (Warner Lambert Company LLC, priority 2003, dated 2007).

In one data set the target is D2 receptor (Homo sapiens, UniProt P14416). Kind of data set: [3H]Thymidine uptake assay for D2 intrinsic activity. It is filed as cell-based. The note with it: Table 1; test compound 1 μM; 1 μM Quinpirole = 100% intrinsic activity.
D2 receptor, sequence (P14416 whole entry): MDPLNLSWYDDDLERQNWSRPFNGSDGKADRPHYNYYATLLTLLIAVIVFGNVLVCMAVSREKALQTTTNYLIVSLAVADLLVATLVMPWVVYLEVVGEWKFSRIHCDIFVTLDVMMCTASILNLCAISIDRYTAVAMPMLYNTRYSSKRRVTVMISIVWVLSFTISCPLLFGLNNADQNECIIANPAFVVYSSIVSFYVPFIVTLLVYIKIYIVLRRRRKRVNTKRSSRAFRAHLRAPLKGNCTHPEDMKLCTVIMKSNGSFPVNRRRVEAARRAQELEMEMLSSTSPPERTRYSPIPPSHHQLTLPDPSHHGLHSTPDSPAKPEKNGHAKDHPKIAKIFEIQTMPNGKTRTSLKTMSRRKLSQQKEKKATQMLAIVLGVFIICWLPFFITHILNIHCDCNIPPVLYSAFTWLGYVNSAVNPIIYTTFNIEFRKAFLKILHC

With `Cc1cc(=O)[nH]c2nc(CCCCCN3CCN(c4cccc(Cl)c4Cl)CC3)ccc12` [Example D3, 7-{5-[4-(2,3-Dichloro-phenyl)-piperazin-1-yl]-pentyl}-4-methyl-1H-[1,8]naphthyridin-2-one], the melting point (commonly the temperature of the solid-liquid transition) was in the range of 195 to 196 °C. Moreover, the maximum response (Emax) – broadly, the size of the effect at its maximum, as opposed to the concentration needed – at 1 µM on D2 receptor amounted to 15%.
`Cc1c(C)c2ccc(OCCCCN3CCN(c4cccc(Cl)c4Cl)CC3)nc2[nH]c1=O` [Example D7, 7-{4-[4-(2,3-Dichloro-phenyl)-piperazin-1-yl]-butoxy}-3,4-dimethyl-1H-[1,8]naphthyridin-2-one] yielded a melting point of 161 to 163 °C. This molecule also displayed an Emax at 1 µM at D2 receptor of 15%.
Regarding `Cc1cc2ccc(CCCCCN3CCN(c4cccc(Cl)c4Cl)CC3)nc2[nH]c1=O` [Example D5, 7-{5-[4-(2,3-Dichloro-phenyl)-piperazin-1-yl]-pentyl}-3-methyl-1H-[1,8]naphthyridin-2-one], the melting point lay in the range of 157 to 158 °C. In addition, the Emax at 1 µM on D2 receptor turned out to be 15%.
The corresponding values for `CC(=O)c1cccc(N2CCN(CCCCOc3ccc4ccc(=O)[nH]c4n3)CC2)c1Cl` [Example B6, 7-{4-[4-(3-Acetyl-2-chloro-phenyl)-piperazin-1-yl]-butoxy}-1H-[1,8]naphthyridin-2-one] are 108 to 110 °C and 16%.
The corresponding values for `O=C1CCc2ccc(OCCCCN3CCN(c4cccc5c4CCCC5=O)CC3)nc2N1` [Example A58, 7-{4-[4-(5-Oxo-5,6,7,8-tetrahydro-naphthalen-1-yl)-piperazin-1-yl]-butoxy}-3,4-dihydro-1H-[1,8]naphthyridin-2-one] are 169 to 170 °C and 48%.
For `Cc1cc2c(nc1OCCCCN1CCN(c3cccc4ccccc34)CC1)NC(=O)CC2` [Example E2, 6-Methyl-7-[4-(4-naphthalen-1-yl-piperazin-1-yl)-butoxy]-3,4-dihydro-1H-[1,8]naphthyridin-2-one], the melting point is 76 to 78 °C. At D2 receptor, this molecule yielded a maximum response (Emax) at 1 µM of 22%.
The corresponding values for `Cc1cc(=O)[nH]c2nc(OCCCCN3CCN(c4cccc(Cl)c4Cl)CC3)ccc12` [Example D1, 7-{4-[4-(2,3-Dichloro-phenyl)-piperazin-1-yl]-butoxy}-4-methyl-1H-[1,8]naphthyridin-2-one] are 181 to 182 °C and 31%.
